How the values were obtained:
[1] = biological target: Phosphatidylinositol 4,5-bisphosphate 3-kinase catalytic subunit alpha isoform (Homo sapiens, UniProt P42336); experiment: Inhibition of recombinant PI3K alpha (unknown origin) using PIP2 as substrate by fluorescence polarization assay; conditions: read-out: Ki(app)
[2] = Antiproliferative activity against human MCF7-neo/Her2 cells after 3 days by luminescence plate reader method; format: functional, cell-based; conditions: 72 h
[3] = Antiproliferative activity against human PC3 cells after 4 days by luminescence plate reader method; format: functional, cell-based; conditions: PC-3, 96 h

Phosphatidylinositol 4,5-bisphosphate 3-kinase catalytic subunit alpha isoform, sequence (P42336 whole entry, canonical isoform): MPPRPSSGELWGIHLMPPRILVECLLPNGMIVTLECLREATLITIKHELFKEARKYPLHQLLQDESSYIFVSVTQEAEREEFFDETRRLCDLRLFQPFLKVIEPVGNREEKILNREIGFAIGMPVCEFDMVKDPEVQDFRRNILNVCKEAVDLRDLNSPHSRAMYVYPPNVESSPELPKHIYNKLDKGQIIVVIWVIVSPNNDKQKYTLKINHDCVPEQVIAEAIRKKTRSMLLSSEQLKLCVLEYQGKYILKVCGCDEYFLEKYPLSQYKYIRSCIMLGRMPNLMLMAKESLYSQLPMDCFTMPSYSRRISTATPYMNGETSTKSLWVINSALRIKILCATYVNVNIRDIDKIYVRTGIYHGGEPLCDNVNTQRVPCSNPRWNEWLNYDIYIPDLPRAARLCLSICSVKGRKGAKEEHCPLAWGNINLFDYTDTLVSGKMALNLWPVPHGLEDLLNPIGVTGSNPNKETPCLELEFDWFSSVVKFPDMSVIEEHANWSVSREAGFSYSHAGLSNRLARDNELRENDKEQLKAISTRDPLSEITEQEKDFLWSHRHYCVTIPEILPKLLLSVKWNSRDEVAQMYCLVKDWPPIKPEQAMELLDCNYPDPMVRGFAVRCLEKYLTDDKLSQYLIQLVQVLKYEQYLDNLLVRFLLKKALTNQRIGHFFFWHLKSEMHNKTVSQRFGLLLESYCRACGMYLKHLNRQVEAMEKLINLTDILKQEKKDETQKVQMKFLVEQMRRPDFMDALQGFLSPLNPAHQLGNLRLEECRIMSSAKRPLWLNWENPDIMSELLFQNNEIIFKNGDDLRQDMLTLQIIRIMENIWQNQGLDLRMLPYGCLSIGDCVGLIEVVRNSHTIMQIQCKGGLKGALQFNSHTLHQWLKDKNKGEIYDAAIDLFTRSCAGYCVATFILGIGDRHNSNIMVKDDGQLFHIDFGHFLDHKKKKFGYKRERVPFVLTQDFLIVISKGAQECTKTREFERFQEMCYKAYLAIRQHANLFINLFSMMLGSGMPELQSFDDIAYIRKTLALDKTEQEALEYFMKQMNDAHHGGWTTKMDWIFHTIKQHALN

| Structure (SMILES) | Ki [1] | EC50 [2] | EC50 [3] |
| --- | --- | --- | --- |
| COc1cc2c(cn1)-c1nc(-c3ncnn3C(C)C)cn1CCO2 | 3.6 nM |  |  |
| CC(C)n1ncnc1-c1cn2c(n1)-c1cnc(OCC(N)=O)cc1OCC2 | 0.9 nM |  |  |
| CC(C)n1ncnc1-c1cn2c(n1)-c1cnc(OC(C)(C)C(N)=O)cc1OCC2 | 3.1 nM |  |  |

The next lines start with results.

| Ki [1] | Structure (SMILES) | EC50 [2] | EC50 [3] |
| --- | --- | --- | --- |
| 0.1 nM | CC(C)n1ncnc1-c1cn2c(n1)-c1ccc(N3CC[C@H]3C(N)=O)cc1OCC2 | 50 nM | 230 nM |
| 1 nM | COC(=O)Nc1ccc2c(c1)OCCc1cc(-c3nncn3-c3ccccc3Cl)sc1-2 |  |  |

From ChEMBL document CHEMBL3769318, “The Rational Design of Selective Benzoxazepin Inhibitors of the α-Isoform of Phosphoinositide 3-Kinase Culminating in the Identification of (S)-2-((2-(1-Isopropyl-1H-1,2,4-triazol-5-yl)-5,6-dihydrobenzo[f]imidazo[1,2-d][1,4]oxazepin-9-yl)oxy)propanamide (GDC-0326)” (J Med Chem, 2016)
